# PMC11152041, “Tricarbonyl rhenium(I) complexes with 8-hydroxyquinolines: structural, chemical, antibacterial, and anticancer characteristics” (RSC Advances, 2024)
# Where two headings read alike, the source gives them in different places.
# Columns and labels:
# E. coli ATCC25922 = test: Broth microdilution MIC/MBC (ISO 20776-1); type: cell-based, Escherichia coli
# Protocol: (§1) Bacterial strains and cell lines were obtained from the American Type Culture Collection (ATCC).[59] […] Antimicrobial activity was tested in Müeller Hinton (MH) II broth (Becton Dickinson). For anticancer activity assay, the following reagents from Merk were used: 3-(4,5-dimethylthiazol-2-yl)-2,5-diphenyltetrazolium bromide (MTT), sodium dodecyl sulfate (SDS) and HCl. The solubilized formazan product was spectrophotometrically quantified in a Power Wave XS (Bio Tek, Winooski, VT, USA) microplate reader. The HL-60 and PC-3 cells were grown in RPMI-1640 medium with stable glutamine (Biowest) supplemented with 10% (v/v) of heat-inactivated fetal bovine serum (FBS, Biowest) and 1% (v/v) of antibiotic–antimycotic solution (Biowest). The SKOV-3 cells were grown in McCoy's 5A medium with L-glutamine (Biowest) supplemented with 10% (v/v) heat-inactivated FBS, and 1% (v/v) antibiotic–antimycotic solution. The MCF-7 cells were grown in Eagle's MEM (Minimal Essential Medium) medium with stable glutamine (Biowest), supplemented with 10% (v/v) heat-inactivated FBS 1% (v/v) MEM non-essential amino acids (Biowest), 1% (v/v) antibiotic–antimycotic solution, and 1 mM sodium pyruvate (Merck). The MCF-10A cells were grown in Ham's F-12K (Kaighn's) Medium with stable glutamine (Gibco) supplemented with 5% (v/v) heat-inactivated FBS, 1% (v/v) MEM non-essential amino acids, 1% (v/v) antibiotic–antimycotic solution, 5 μg mL^−1 insulin, 0.04 μg mL^−1 hydrocortisone (Merck), and 15 ng mL^−1 human Epidermal Growth Factor (hEGF, PeproTech).
# (§2) The in vitro antibacterial activity was determined according to ISO 20776-1.[88] Among the tested microorganisms were Gram-negative rods, E. coli ATCC25922 and P. aeruginosa ATCC27853, and Gram-positive cocci, S. aureus ATCC29213 and E. faecalis ATCC29212. The selected bacterial species represented the most common etiologic agents of human infections and are used for quality control of antimicrobial susceptibility testing.[89] The test procedure included the determination of MICs and MBCs of complexes and their free ligands. MIC and MBC determinations of ciprofloxacin, as the reference antibiotic, were also performed. All compounds were dissolved in DMSO to reach the maximum 512 mg L^−1 concentration. […] The assay consisted of preparing 2-fold dilutions of the substances in a liquid growth medium MH II and inoculating them with a standardized suspension of microorganisms at a McFarland density of 0.5 (≈10^8 CFU mL^−1). The culture plates were incubated at 35 °C for 24 h. The lowest concentration of the compound inhibiting visible bacterial growth was specified as MIC, and the concentration that reduced bacterial growth by >99.99% after counting live bacteria on the plates compared to the positive control was defined as MBC.
# P. aeruginosa ATCC27853 = test: Broth microdilution MIC/MBC (ISO 20776-1); type: cell-based, Pseudomonas aeruginosa
# Protocol: as §1, §2
# S. aureus ATCC29213 = test: Broth microdilution MIC/MBC (ISO 20776-1); type: cell-based, Staphylococcus aureus
# Protocol: as §1, §2
# E. faecalis ATCC29212 = test: Broth microdilution MIC/MBC (ISO 20776-1); type: cell-based, Enterococcus faecalis
# Protocol: as §1, §2
# HL-60 cells = test: MTT cytotoxicity assay; type: cell-based, human; details: read-out: IC50 ± SD
# Protocol: (§3) The cytotoxicities for studied compounds were evaluated against leukemia cells (HL-60), as well as ovarian (SKOV-3), prostate (PC-3), and breast (MCF-7) cancer cell lines. The potential selectivity of these compounds towards cancer cells was assessed by determination of their cytotoxicities towards breast non-cancerous cells (MCF-10A). For comparison, cisplatin was added to the cytotoxicity assays.
# as §1
# (§4) The cells were cultured in 96-well plates and incubated with the tested compound for 24 h and 48 h. All experiments were performed in exponentially growing cultures. The 0.03 M solutions of the compounds in DMSO were appropriately diluted using culture media. The maximal final concentration of DMSO in each well was 0.1%. The cytotoxicity of the compounds was measured by determining cell viability with a colorimetric test based on 3-(4,5-dimethylthiazol-2-yl)-2,5-diphenyltetrazolium bromide (MTT). MTT stock solution was added to each well to a final concentration of 0.5 mg mL^−1 and incubated for 4 h at 37 °C; following formazan crystals were dissolved by the addition of sodium dodecyl sulfate (SDS) solution (10% SDS in 0.001 M HCl). MTT and SDS were added directly to the cell culture. The compound's IC50 values (concentration required to reduce the viability of cells by 50% compared with the control cells) were calculated from the data obtained with the MTT assay.
# MCF-7 cells = test: MTT cytotoxicity assay; type: cell-based, human; details: read-out: IC50 ± SD
# Protocol: as §3, §1, §4
# PC-3 cells = test: MTT cytotoxicity assay; type: cell-based, human; details: read-out: IC50 ± SD
# Protocol: as §3, §1, §4
# SKOV-3 cells = test: MTT cytotoxicity assay; type: cell-based, human; details: read-out: IC50 ± SD
# Protocol: as §3, §1, §4
# MCF-10A cells = test: MTT cytotoxicity assay
# Protocol: as §3, §1, §4
# [1] = Stability of the complexes in DMSO by NMR (exchange of pyrazole ligand with DMSO); type: physicochemical
# Protocol: In 3, after two days, an equilibrium between the Hdmpz and DMSO complexes stabilizes at 77% to 23% ratio (Fig. S34 ^†). Complex 3 can be recovered from the mixture by DMSO evaporation and the complex with water is even weaker. In the case of 3-phenylpyrazole in 8, the complex amount drops to 50% immediately after dissolving and after 24 h reaches ratio of 39% to 61% (Fig. S35 ^†).
# The chemicals were purchased from Sigma-Aldrich and only 5-chloro-8-hydroxyquinoline from TCI. Their purity was 98 or 99% (for 3-phenylpyrazole – 97%). Anhydrous solvents with HPLC grade (≥99.9%) were applied. All chemicals were used without further purification. Elemental analysis was performed on an Elementar Vario EL III analyzer. UV-Vis spectra of methanol solutions were recorded in the 200–900 nm range with a Jasco V-750 spectrometer. Infrared absorption spectra in the 400–4000 cm^−1 range were recorded with a Thermo Scientific Nicolet iS10 FT-IR spectrometer using KBr pellets. ^1H and ^13C NMR spectra of DMSO-d6 or CDCl3 solutions were recorded at 25 °C on a Varian VNMRS-500 or Varian 400MR spectrometer operated at 499.8 and 400 MHz, respectively. The NMR spectra were referenced to the internal reference of tetramethylsilane (TMS).
# [2] = tested on: solid tumor cells (SKOV-3, PC-3, MCF-7); test: MTT cytotoxicity assay, solid tumor cell lines taken together; type: cell-based; details: Homo sapiens, read-out: IC50 against solid tumor cells
# Protocol: For comparison, cisplatin was added to the cytotoxicity assays.
# All experiments were performed in exponentially growing cultures.
# [3] = tested on: human cervical adenocarcinoma (HeLa) cells; details: cited from earlier work
# [4] = E. coli ATCC25922, >99.99% reduction of growth
# [5] = E. coli ATCC25922, MH II broth, 35 °C, 24 h
# [6] = P. aeruginosa ATCC27853, >99.99% reduction of growth
# [7] = P. aeruginosa ATCC27853, MH II broth, 35 °C, 24 h
# [8] = S. aureus ATCC29213, >99.99% reduction of growth
# [9] = S. aureus ATCC29213, MH II broth, 35 °C, 24 h
# [10] = E. faecalis ATCC29212, >99.99% reduction of growth
# [11] = E. faecalis ATCC29212, MH II broth, 35 °C, 24 h
# [12] = read-out: IC50 ± SD, MCF-10A (non-cancerous), 24 h, MTT, * precipitation of the complex
# [13] = read-out: IC50 ± SD, MCF-10A (non-cancerous), 48 h, MTT, * precipitation of the complex
Compound,MBC (E. coli ATCC25922; [4]),MIC (E. coli ATCC25922; [5]),MBC (P. aeruginosa ATCC27853; [6]),MIC (P. aeruginosa ATCC27853; [7]),MBC (S. aureus ATCC29213; [8]),MIC (S. aureus ATCC29213; [9]),MBC (E. faecalis ATCC29212; [10]),MIC (E. faecalis ATCC29212; [11]),"IC50 (HL-60 cells; HL-60, 24 h, MTT)","IC50 (HL-60 cells; HL-60, 48 h, MTT)","IC50 (MCF-7 cells; MCF-7, 24 h, MTT)","IC50 (MCF-7 cells; MCF-7, 48 h, MTT)","IC50 (PC-3 cells; PC-3, 24 h, MTT)","IC50 (PC-3 cells; PC-3, 48 h, MTT)","IC50 (SKOV-3 cells; SKOV-3, 24 h, MTT)","IC50 (SKOV-3 cells; SKOV-3, 48 h, MTT)",IC50 (MCF-10A cells; [12]),IC50 (MCF-10A cells; [13]),other results
"Cc1ccc2cccc([O][Re])c2n1.[C-]#[O+].[C-]#[O+].[C-]#[O+].c1ccc(-c2ccn[nH]2)cc1 [complex 8, [Re(CO)3(MeQ)HPhpz]]",>512/>512 mg L^−1,>512/>512 mg L^−1,>512/>512 mg L^−1,>512/>512 mg L^−1,> 512 mg/L,128 mg/L,> 512 µg/mL,32 µg/mL,9 ± 1 µM,8 ± 1 µM,68 ± 4 µM,53 ± 3 µM,39 ± 5 µM,31 ± 5 µM,> 100 µM,41 ± 7 µM,36 ± 1 µM,21 ± 4 µM,share of the DMSO complex ([1]; after 24 h): 61%; share of the HPhpz complex ([1]; after 24 h): 39%; complex amount ([1]; immediately after dissolving): 50%
"Cc1cc(C)[nH]n1.[C-]#[O+].[C-]#[O+].[C-]#[O+].[Re][O]c1cccc2cccnc12 [complex 3, [Re(CO)3(Q)Hdmpz]]",>512/>512 mg L^−1,>512/>512 mg L^−1,>512/>512 mg L^−1,>512/>512 mg L^−1,512/>512 mg L^−1,512/>512 mg L^−1,512 µg/mL,128 µg/mL,7 ± 2 µM,6 ± 1 µM,19 ± 2 µM,29 ± 5 µM,14 ± 2 µM,16 ± 2 µM,32 ± 7 µM,31 ± 7 µM,> 100 µM,> 100 µM,"IC50 / activity on normal cells (MCF-10A cells; MCF-10A, incubation time not given): no activity; IC50 (MCF-10A cells; read-out: IC50 / activity on normal cells, MCF-10A, incubation time not given): > 100 µM; share of the DMSO complex at equilibrium ([1]; after two days): 23%; share of the Hdmpz complex at equilibrium with the DMSO complex ([1]; after two days): 77%"
"Cc1ccc2cccc(O)c2n1 [MeHQ, 2-methyl-8-hydroxyquinoline, reference compound]",,,,,,,,,,,,,,,,,,,"MBC (E. coli ATCC25922; Escherichia coli, ATCC25922): > 512 µg/mL; MIC (E. coli ATCC25922; Escherichia coli, ATCC25922, 24 h): 32 µg/mL; MBC (P. aeruginosa ATCC27853; Pseudomonas aeruginosa, ATCC27853): > 512 µg/mL; MIC (P. aeruginosa ATCC27853; Pseudomonas aeruginosa, ATCC27853, 24 h): 256 µg/mL; MBC (S. aureus ATCC29213; Staphylococcus aureus, ATCC29213): 128 mg/L; MIC (S. aureus ATCC29213; Staphylococcus aureus, ATCC29213, 24 h): 32 mg/L; MBC (E. faecalis ATCC29212; Enterococcus faecalis, ATCC29212): 32 µg/mL; MIC (E. faecalis ATCC29212; Enterococcus faecalis, ATCC29212, 24 h): 32 µg/mL; IC50 (HL-60 cells; Homo sapiens, HL-60, 24 h): 27 ± 2 µM; IC50 (HL-60 cells; Homo sapiens, HL-60, 48 h): 18 ± 2 µM; IC50 (MCF-7 cells; Homo sapiens, MCF7, 24 h): > 100 µM; IC50 (MCF-7 cells; Homo sapiens, MCF7, 48 h): > 100 µM; IC50 (PC-3 cells; Homo sapiens, PC-3, 24 h): 62 ± 8 µM; IC50 (PC-3 cells; Homo sapiens, PC-3, 48 h): > 100 µM; IC50 (SKOV-3 cells; Homo sapiens, SK-OV-3, 24 h): > 100 µM; IC50 (SKOV-3 cells; Homo sapiens, SK-OV-3, 48 h): > 100 µM; IC50 (MCF-10A cells; Homo sapiens, MCF-10A, 24 h, read-out: IC50 ± SD): > 100 µM; IC50 (MCF-10A cells; Homo sapiens, MCF-10A, 48 h, read-out: IC50 ± SD): > 100 µM; IC50 [2]: > 100 µM"
C1N2CN3CN1CP(C2)C3.[C-]#[O+].[C-]#[O+].[C-]#[O+].[Re][O]c1cccc2cccnc12 [[Re(CO)3(Q)(PTA)]],,,,,,,,,,,,,,,,,,,cytotoxicity [3]: moderate activity
"Cc1cc(C)[nH]n1.Cc1ccc2cccc([O][Re])c2n1.[C-]#[O+].[C-]#[O+].[C-]#[O+] [complex 7, [Re(CO)3(MeQ)Hdmpz]]",>512/>512 mg L^−1,>512/>512 mg L^−1,>512/>512 mg L^−1,>512/>512 mg L^−1,>512/>512 mg L^−1,>512/>512 mg L^−1,> 512 µg/mL,128 µg/mL,13 ± 1 µM,12 ± 1 µM,27 ± 8 µM,19 ± 4 µM,16 ± 2 µM,18 ± 4 µM,29 ± 5 µM,26 ± 5 µM,> 25 µM,> 25 µM,solubility in the cytotoxicity assay (MCF-10A cells; MCF-10A cell line culture medium): precipitated at higher concentrations
"[C-]#[O+].[C-]#[O+].[C-]#[O+].[Re][O]c1cccc2cccnc12.c1c[nH]cn1 [complex 1, [Re(CO)3(Q)Him]]",256/256 mg L^−1,256/256 mg L^−1,> 512 µg/mL,128 µg/mL,> 512 mg/L,256 mg/L,> 512 µg/mL,64 µg/mL,4.3 ± 0.2 µM,4 ± 1 µM,34 ± 4 µM,30 ± 7 µM,28 ± 6 µM,27 ± 4 µM,36 ± 5 µM,39 ± 3 µM,39 ± 1 µM,24 ± 1 µM,
